Data set [1] has as its system basophils in human whole blood (CD63 expression). Description: 384-Well HTBS Whole Blood CD63 Basophil Assay (25% blood). Format: cell-based. Conditions: for IC50: comparison table with known compounds, human whole blood basophils, head prints IC50; for EC50: human whole blood (25% blood), anti-FceRI mAb activation, CD63 on CCR3 positive cells. The protocol:
Syk activity was assessed in relation to reduced activation of basophils as measured by the expression of CD63 in a human whole blood basophil cellular assay (25% blood). Basophil activation was measured in human whole blood using the Flow CAST kit (Buhlmann Laboratories AG, Baselstrasse, Switzerland) following the protocol provided by the manufacturer with minor modifications. Fresh human whole blood in heparin was collected and delivered same day (AllCells, Emeryville, Calif.). Whole blood samples were incubated with either DMSO (1% final) or serial diluted compounds in DMSO for 60 minutes at 37° C. Basophils were activated using the anti-FceRI mAb and stained with anti-CD63-FITC and anti-CCR3-PE for 20 minutes at 37° C. (per well: 50 μL of whole blood was mixed with 113 μL of stimulation buffer, 8.5 μL anti-FceRI mAb, 8.5 μL Ab stain CCR3-PE/CD63-FITC). Cells were centrifuged at 1000×g for 18 minutes and 150 μL/well of supernatant removed. Red blood cells were lysed and cells fixed by 2 rounds of cell lysing: resuspending cell pellets with 150 μL/well 1× lysis buffer, incubating at room temperature for 10 minutes, and collecting cell pellets by centrifuging for 1200 rpms for 5 minutes. Cells were washed with 150 µL/well wash buffer twice, and resuspended in a final volume of 75 µL/well of wash buffer for either immediate flow cytometery analysis or overnight incubation at 4° C. followed by flow cytometry analysis. Degranulation (basophil activation) was detected by CD63 surface expression on CCR3 positive cells. The percent CD63 positive cells within the gated basophil population were determined and normalized to the DMSO (negative control) and control compound (positive control).

Another data set deals with human hepatocytes. Description: Human Hepatocyte Stability Assay (predicted hepatocyte clearance). Format: in vitro ADME. How it is done: The human […] stability of the compounds as predicted hepatocyte clearance in L/hr/kg was assessed. Compounds to be tested were diluted to 200 μM (4 μl of 10 mM DMSO stock into 196 μl ACN:H2O (50:50). Propranolol was used as a positive control, and buffer only without hepatocytes as 0% control. These were further diluted 4 μl with 891 μl KHB buffer (InVitroGRO catalog number Z99074) to provide 2× dosing solution. To each well of 24 well plate, 250 μl of the 2× dosing solution was added to each well with 250 μl of hepatocytes cells (1×10^6 viable cells/ml per well) or KHB for control samples to achieve a final compound concentration of 1 μM during incubation. The final solvent concentration was 0.01% DMSO and 0.25% ACN. The culture plate was placed on a rocker and incubated at 37° C., 5% CO2. Samples were collected at time 0, 1, 3, and 6 hours. The loss of parent compound was determined using LC-MS methods against a standard curve.

Where [2] appears, read: comparison table with known compounds, predicted hepatocyte clearance (L/hr/kg).
Where [3] appears, read: predicted hepatocyte clearance, human hepatocytes, 1 μM compound, 0-6 hours.

SMILES strings stand for the structures.

As usually defined, the IC50 is the concentration needed to halve the response being measured. A higher IC50 goes with weaker potency. For orientation: EC50 means the concentration giving half of the maximal effect. Read a high EC50 as a less potent agent.

As for `COc1ccc(Nc2nc(-c3cccc(N)c3)cn3ccnc23)cc1OC` [6-(3-aminophenyl)-N-(3,4-dimethoxyphenyl)imidazo[1,2-a]pyrazin-8-amine, reference compound], in data set [1], the IC50 worked out at 809 nM. For the same compound, the “Hheps CL” value in the data set on human hepatocytes (setting [2]) was 4 mL/min/kg.
In the same order, the values of `Cc1ncc(-c2cn3ccnc3c(Nc3ccc(N4CCOCC4)cc3)n2)cc1N` [6-(5-amino-6-methylpyridin-3-yl)-N-(4-morpholinophenyl)imidazo[1,2-a]pyrazin-8-amine, reference compound] are 250 nM and 13.3 mL/min/kg.
Regarding `Nc1cncc(-c2cn3ccnc3c(Nc3ccc(N4CCO[C@@H](CO)C4)cc3)n2)n1` [Ex.-3, (R)-(4-(4-((6-(6-aminopyrazin-2-yl)imidazo[1,2-a]pyrazin-8-yl)amino)phenyl)morpholin-2-yl)methanol], in data set [1], it took 63 nM to reach half-maximal inhibition (IC50) and it took 63 nM to reach a half-maximal effect (EC50). Moreover, the “Hheps CL” value in the data set on human hepatocytes (setting [2]) was 1.5 mL/min/kg. The “Hheps CL” value with human hepatocytes (setting [3]) is 1.5 mL/min/kg.
Turning to `Cc1c(-c2cncc(N)n2)nc(Nc2ccc(N3CCN(C4COC4)CC3)cc2)c2nccn12` [Ex.-4, 6-(6-aminopyrazin-2-yl)-5-methyl-N-(4-(4-(oxetan-3-yl)piperazin-1-yl)phenyl)imidazo[1,2-a]pyrazin-8-amine], in data set [1], the IC50 stood at 157 nM and the EC50 was found to be 157 nM. The “Hheps CL” value with human hepatocytes (setting [2]) was 1.3 mL/min/kg. Moreover, the “Hheps CL” value in the data set with human hepatocytes (setting [3]) was 1.3 mL/min/kg.
Take `Nc1cncc(-c2cn3ccnc3c(Nc3ccc(N4CCN(C5COC5)CC4)c(OCCO)c3)n2)n1` [Ex.-5, 2-(5-((6-(6-aminopyrazin-2-yl)imidazo[1,2-a]pyrazin-8-yl)amino)-2-(4-(oxetan-3-yl)piperazin-1-yl)phenoxy)ethanol]: in data set [1], the IC50 was 120 nM and it took 120 nM to reach a half-maximal effect (EC50). Besides, the “Hheps CL” value in the data set with human hepatocytes (setting [2]) was 1.2 mL/min/kg. For the same compound, in the data set on human hepatocytes (setting [3]), the “Hheps CL” value was 1.2 mL/min/kg.
In data set [1], `Nc1cncc(-c2cn3ccnc3c(Nc3ccc(N4CCN(CC(CO)CO)CC4)cc3)n2)n1` [Ex.-6, 2-((4-(4-((6-(6-aminopyrazin-2-yl)imidazo[1,2-a]pyrazin-8-yl)amino)phenyl)piperazin-1-yl)methyl)propane-1,3-diol] had an IC50 of 128 nM and a concentration for a half-maximal effect (EC50) of 128 nM. For the same compound, in the data set on human hepatocytes (setting [2]), the “Hheps CL” value is 1.3 mL/min/kg. Further, in the data set on human hepatocytes (setting [3]), the “Hheps CL” value was 1.3 mL/min/kg.

Values taken from patent publication US10342794B2, “Substituted imidazo[1,2-a]pyrazines as Syk inhibitors” (Gilead Sciences, Inc., priority 2013, dated 2019).
